Read-outs that look alike come from different tables or passages of the source.
Columns and labels:
PDK1 kinase = target: T1, PDK1 kinase (Homo sapiens, UniProt O15530); assay: PDK1 Kinase Alpha Screen Assay; type: biochemical; conditions: read-out: PDK1 IC50
T1 sequence (O15530 1-556): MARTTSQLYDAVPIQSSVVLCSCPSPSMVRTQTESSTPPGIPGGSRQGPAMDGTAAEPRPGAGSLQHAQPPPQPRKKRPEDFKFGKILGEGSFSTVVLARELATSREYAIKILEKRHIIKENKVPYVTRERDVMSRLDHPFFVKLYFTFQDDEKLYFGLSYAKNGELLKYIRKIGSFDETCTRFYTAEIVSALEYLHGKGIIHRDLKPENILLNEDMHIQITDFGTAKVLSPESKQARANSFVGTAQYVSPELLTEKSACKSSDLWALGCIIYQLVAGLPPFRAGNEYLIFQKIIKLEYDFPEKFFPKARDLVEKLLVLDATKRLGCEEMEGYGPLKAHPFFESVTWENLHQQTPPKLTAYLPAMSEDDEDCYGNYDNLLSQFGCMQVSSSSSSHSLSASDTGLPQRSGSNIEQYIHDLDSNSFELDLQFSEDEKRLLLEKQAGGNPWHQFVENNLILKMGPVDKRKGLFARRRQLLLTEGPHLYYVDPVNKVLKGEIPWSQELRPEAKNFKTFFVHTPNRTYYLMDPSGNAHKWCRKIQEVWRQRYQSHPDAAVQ
Summary of the method: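 Compound in DMSO added to PDK1-4 peptide; PDK1/ATP mix starts reaction (final 50 nM peptide, 10 uM ATP). Runs 3-18 hours, stopped with 90 mM EDTA buffer. Antibody/bead mix added, developed overnight at room temperature, then AlphaScreen signal read.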

PC-3 cells = assay: Cell Proliferation Assay (Cell Titer Glo), PC-3 cell line; type: cell-based; conditions: Homo sapiens, read-out: CPEC50 PC3
Summary of the method: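 PC-3 cells, 1000 cells/well, left to adhere 3-5 h, then exposed for 3 days at 37° C to compounds as 1:3 serial dilutions from 500× DMSO stocks diluted in growth medium. Medium then replaced with fresh medium and viability read by Cell Titer Glo luminescence.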

[1] = PC-3, Cell Proliferation Assay, PC3
[2] = PC-3, Cell Proliferation Assay, PC3 cells

SMILES	IC50 (PDK1 kinase; PDK1 Kinase Alpha Screen Assay)	EC50 (PC-3 cells; [1])	EC50 (PC-3 cells; [2])	IC50 (PDK1 kinase)	EC50 (PC-3 cells; PC-3, PC3 cells)
CC(C)NC(=O)c1ccc(Nc2ncc3cccc(OC4CCNCC4)c3n2)cc1 [Compound 491, N-isopropyl-4-(8-(piperidin-4-yloxy)quinazolin-2-ylamino)benzamide]	< 5 µM	< 5 µM			
CC(C)NS(=O)(=O)c1ccc(Nc2ncc3ccc(OC4CCNCC4)cc3n2)cc1 [Compound 607, N-isopropyl-4-(7-(piperidin-4-yloxy)quinazolin-2-ylamino)benzenesulfonamide]	< 5 µM	< 5 µM			
FC(F)(F)c1ccc(OC2CCNCC2)c2nc(Nc3ccc(N4CCOCC4)cc3)ncc12 [Compound 384, N-(4-morpholinophenyl)-8-(piperidin-4-yloxy)-5-(trifluoromethyl)quinazolin-2-amine]	< 5 µM	5 to 10 µM			
COc1cccc(Nc2ncc3cccc(-c4ccc(NCCN5CCCC5)nc4)c3n2)c1 [Compound 395, N-(3-methoxyphenyl)-8-(6-(2-(pyrrolidin-1-yl)ethylamino)pyridin-3-yl)quinazolin-2-amine]	< 5 µM	< 5 µM			
C#Cc1cc(OC2CNC2)c2nc(Nc3ccc(N4CCOCC4)cc3)ncc2c1 [Compound 707, 8-(azetidin-3-yloxy)-6-ethynyl-N-(4-morpholinophenyl)quinazolin-2-amine]	< 5 µM		< 5 µM		
NC(=O)C1CCN(Cc2cncc(-c3cccc4cnc(Nc5ccc(S(N)(=O)=O)cc5)nc34)c2)CC1 [Compound 947, 1-((5-(2-(4-sulfamoylphenylamino)quinazolin-8-yl)pyridin-3-yl)methyl)piperidine-4-carboxamide]				< 5 µM	5 to 10 µM
NS(=O)(=O)c1ccc(Nc2ncc3cccc(-c4cncc(C(=O)NCCN5CCCC5)c4)c3n2)cc1 [Compound 979, N-(2-(pyrrolidin-1-yl)ethyl)-5-(2-(4-sulfamoylphenylamino)quinazolin-8-yl)nicotinamide]				< 5 µM	5 to 10 µM
Cc1ccc(-c2ccc3cnc(Nc4ccc(S(N)(=O)=O)cc4)nc3c2)c(F)n1 [Compound 939, 4-(7-(2-fluoro-6-methylpyridin-3-yl)quinazolin-2-ylamino)benzenesulfonamide]				< 5 µM	< 5 µM
CC(C)Cn1cc(-c2ccc3cnc(Nc4ccc(S(=O)(=O)NCCN5CCCCC5)cc4)nc3c2)cn1 [Compound 711, 4-(7-(1-isobutyl-1H-pyrazol-4-yl)quinazolin-2-ylamino)-N-(2-(piperidin-1-yl)ethyl)benzenesulfonamide]	< 5 µM		< 5 µM		
Brc1ccc(OC2CCNCC2)c2nc(Nc3ccc(N4CCOCC4)cc3)ncc12 [Compound 435, 5-bromo-N-(4-morpholinophenyl)-8-(piperidin-4-yloxy)quinazolin-2-amine]	< 5 µM	5 to 10 µM			
c1cc(N2CCOCC2)ccc1Nc1ncc2cc(C3CC3)c(OC3CCNCC3)cc2n1 [Compound 643, 6-cyclopropyl-N-(4-morpholinophenyl)-7-(piperidin-4-yloxy)quinazolin-2-amine]	< 5 µM	< 5 µM			
COc1ccc(C(F)(F)F)c2cnc(Nc3ccc(C(=O)N4CCOCC4)cc3)nc12 [Compound 383]	< 5 µM	5 to 10 µM			
Fc1cc(F)cc(Nc2ncc3ccc(OC4CCNCC4)cc3n2)c1 [Compound 568, N-(3,5-difluorophenyl)-7-(piperidin-4-yloxy)quinazolin-2-amine]	< 5 µM	< 5 µM			
CNS(=O)(=O)c1ccc(Nc2ncc3ccc(O)c(C4CCN(C(C)C)CC4)c3n2)cc1 [Compound 549]	< 5 µM	< 5 µM			
CN1CCC(Nc2ccc3cnc(Nc4ccc(N5CCOCC5)c(Cl)c4)nc3c2)CC1 [Compound 355, N2-(3-chloro-4-morpholinophenyl)-N7-(1-methylpiperidin-4-yl)quinazoline-2,7-dimaine]	< 5 µM	< 5 µM			
CC(C)N1CCC(Oc2cccc3cnc(N4CCN(c5ccc(N)cc5)CC4)nc23)CC1 [Compound 552, 4-(4-(8-(1-isopropylpiperidin-4-yloxy)quinazolin-2-yl)piperazin-1-yl)aniline]	10 to 25 µM	5 to 10 µM			

Source: patent US7932262B2 (Novartis AG, priority 2006, dated 2011)
